Experimental data reported in US10149472B2, “Chitin oligomers for use in promoting non-leguminous plant growth and development” (Wisconsin Alumni Research Foundation, priority 2015, dated 2018).

What was measured:
Rice [1] = assay: Seed treatment of rice in vitro (plates); format: in vivo; settings: seed coating 10^−6 M; 33 days; vs ethanol control; FIG. 10
Protocol: Rice seeds were sterilized using 2% bleach. The sterilized seeds were then divided among 3 treatment groups of 10 seeds each into 15 ml falcon tubes. To the control tube, 0.5% ethanol in water was added. To the CO4 tube, 100 μl of 10^−6 M CO4 solution was added. To the CO8 tube, 100 μl of 10^−6 M CO8 solution was added. Each tube was then shaken to coat the seeds. The coated seeds were then placed on sterile Petri dishes in a hood and were left to dry overnight in the hood. The seeds were then germinated on damp germination paper in sterile Petri dishes for 5 days. The resulting seedlings were transferred to Fahräeus medium plates containing damp germination paper, and the plates were wrapped in Parafilm®. The roots part of the plate was covered with aluminum foil. The plants were grown at room temperature under continuous light for 33 days. The length of the shoot and root systems was measured for all plants.

[2] = tested on: rice trichoblasts (root hair cells); assay: Calcium spiking (YC3.6 imaging) in rice trichoblasts (root hair cells); format: cell-based, Oryza sativa cv Nipponbare; settings: 10^−5 M, FIG. 5, FIG. 6
Protocol: (§1) Mycorrhizal induced calcium responses were measured as described previously (14). Transgenic Oryza sativa Nipponbare lines carrying Yellow Cameleon 3.6 (YC3.6) FRET-based calcium sensor was used to detect calcium spiking. YC3.6 was imaged on a Nikon Eclipse Ti inverted microscope (Nikon, Japan) equipped with an OptoLED Illuminator (model OptoLED, Cairn Research Ltd, UK). YC3.6 was excited at a wavelength of 455 nm using a royal blue LED and was captured with a charge-coupled device (CCD) camera (model RETIGA-SRV, Qimaging, Canada). Emitted fluorescence was separated by an image splitter with a dichroic mirror (model Optosplit II, Cairn Research Ltd, UK) and then passed through a fluorescence filter set. Images were collected every 5 seconds with 1-second exposure and analyzed using MetaFluor (Molecular Devices, Sunnyvale, Calif., USA).
Both LCOs and COs are Required to Induce Calcium Spiking in Trichoblasts. Rhizobia colonize legumes by root hair cells (trichoblasts), whereas AM fungi colonize roots via non-root hair epidermal cells (atrichoblasts). Thus, these different root epidermal cell types may respond differently to COs and LCOs. To test this, we directly compared trichoblast and atrichoblast responses using high concentrations of CO4 in rice. Calcium oscillations observed in rice following treatments of CO4 were restricted to atrichoblasts, with no responses in trichoblasts even with CO4 treatments of 10^−5 M (FIG. 5). This preferential nature of rice atrichoblasts to respond to the AM signals is consistent with a preference for AM fungi to colonize the root via atrichoblasts (26). It is possible that either AM fungi produce signalling molecules other than S-LCO, NS-LCO and CO4 that induce calcium oscillations in rice trichoblasts, or that the mix of signalling molecules is important. To test this, we assessed induction of calcium oscillations by an equimolar mix of 10^−5 M S-LCO, NS-LCO, and CO4.

M. truncatula = assay: Lateral root emergence in M. truncatula; format: in vivo, Medicago truncatula; settings: 10^−7 M; fold induction relative to the control; FIG. 7
Protocol: M. truncatula roots were treated with 10^−7 M CO4 or 10^−7 M NS-LCO and the effect on lateral root emergence was measured. The numbers in parentheses indicate the number of plants analyzed. The significance of the difference to the […] control plants, as measured using a t-test, is indicated. The treatments are measured as fold induction relative to the control. Error bars represent the standard error.
Accordingly, the disclosed method is limited in scope to treating non-leguminous plants, or seeds, seedlings or plant parts thereof.

[3] = tested on: rice atrichoblasts on lateral roots; assay: Calcium spiking (YC3.6 imaging) in rice atrichoblasts on lateral roots; format: cell-based, Oryza sativa cv Nipponbare; settings: for calcium oscillations: FIG. 1; for calcium oscillations, CO4 compared with CO8: 10^−8M and 10^−5 M, FIG. 2
Protocol: as §1
For Bayesian Spectrum Analysis we computed the most probable periods in the time series following published procedures (15). Ten traces per treatment were analyzed. The joint distributions over the period were used to characterize each group. The plots show binned data to summarize the key periods. These ten traces per treatment were also analyzed for interspike intervals. The point of maximum height for each spike was computed after detrending of the time series using a moving average algorithm. The distances between these maxima gave rise to an interspike distribution. We used the non-parametric Mann-Whitney U-test, also known as the Mann-Whitney-Wilcoxon test (16, 17) to test for significant differences between the distributions.
Three traces per treatment, with approximately 80 spikes altogether, were analyzed for calcium spike characteristics. […] The traces were detrended using a moving average algorithm (18). We then characterized the spikes by the time required for each upward and downward phase. This was computed by the number of data points it took from the maximum spike height to the baseline fluctuation of the trace. The plots show the mean value of the upward and downward phases for each treatment, and the associated standard deviations are indicated by the error bars.
Calcium responses were assessed using a stably transformed line of Oryza sativa cv Nipponbare carrying YC3.6. […] To test an array of different LCO structures, we analyzed calcium spiking in response to Nod factor isolations from the broad host range rhizobial species, Rhizobium sp. NGR234, as well as Rhizobium tropici, in addition to the Myc-LCOs.

Rice [4] = assay: Foliar treatment of rice; format: in vivo; settings: foliar 10^−6 M with 0.05% Silwet L-77; for shoot length: FIG. 12A
Protocol: Rice seeds were surface sterilized using 2% bleach. Seeds were then germinated on damp germination paper in sterile Petri dishes for 5 days. The seedlings were then transferred to Fahraeus medium plates containing damp germination paper. The plates were wrapped in Parafilm®, and the roots part of the plate covered with aluminum foil.
The plants were grown at room temperature under continuous light for 21 days. The plants were then transferred to moistened SUNGRO® soil pots (8×8×10 cm) and grown for 3 days under greenhouse condition. The plants were hydrated by pouring water into the tray underneath the pots.
The soil surface was then covered with plastic wrap to prevent any liquid droplets from contacting the soil. Using painting brushes, the front, and back of the plant leaves were treated with 3 ml of chitin derived compounds (CO4 and CO8) at 10^−6 M or a control (0.5% ethanol), each including 0.05% of Silwet L-77 (surfactant). Eleven plants were treated with each solution. The plants were subsequently grown for 14 days, and the shoot length was measured. Once a week, half-strength Hoagland solution was added into the trays underneath the pots. The plants were grown for another 4 days, and the lengths of the shoot and root systems were measured.

| Structure (SMILES) | root system length (Rice [1]) | shoot length (Rice [1]) | calcium spiking in trichoblasts [2] | lateral root emergence (M. truncatula) | calcium oscillations ([3]; 10^−5M, rice large lateral roots, epidermal cells (atrichoblasts)) | calcium oscillations, CO4 compared with CO8 [3] | calcium oscillations ([3]; 10^−8M, rice epidermal cells, robustness and number of responsive cells reduced) | shoot length (Rice [4]; day 14 after treatment) | shoot length (Rice [4]; day 18 after treatment) | root system length (Rice [4]; day 18 after treatment, FIG. 12B) |
| --- | --- | --- | --- | --- | --- | --- | --- | --- | --- | --- |
| CC(=O)N[C@H]1[C@H](O[C@H]2[C@H](O)[C@@H](NC(C)=O)C(O)O[C@@H]2CO)O[C@H](CO)[C@@H](O[C@@H]2O[C@H](CO)[C@@H](O[C@@H]3O[C@H](CO)[C@@H](O)[C@H](O)[C@H]3NC(C)=O)[C@H](O)[C@H]2NC(C)=O)[C@@H]1O (some centres unmarked) [CO4, tetra-N-acetylchitotetraose] | significantly increased | significantly increased | no responses | could not induce lateral root emergence | strong calcium oscillations | respond equally well | still showed calcium oscillations | significantly increased | significance was even higher | significantly promoted |
| CC(=O)N[C@H]1[C@H](O[C@H]2[C@H](O)[C@@H](NC(C)=O)[C@H](O[C@H]3[C@H](O)[C@@H](NC(C)=O)[C@H](O[C@H]4[C@H](O)[C@@H](NC(C)=O)C(O)O[C@@H]4CO)O[C@@H]3CO)O[C@@H]2CO)O[C@H](CO)[C@@H](O[C@@H]2O[C@H](CO)[C@@H](O[C@@H]3O[C@H](CO)[C@@H](O[C@@H]4O[C@H](CO)[C@@H](O[C@@H]5O[C@H](CO)[C@@H](O)[C@H](O)[C@H]5NC(C)=O)[C@H](O)[C@H]4NC(C)=O)[C@H](O)[C@H]3NC(C)=O)[C@H](O)[C@H]2NC(C)=O)[C@@H]1O (some centres unmarked) [CO8, octa-N-acetyl-chitooctaose] | – | – | – | – | – | respond equally well | – | – | – | – |
